# What was measured:
# DPP-4 [1] = biological target: T1, DPP-4 (Homo sapiens, UniProt P27487); details: Bombyx mori protein-derived peptide; cited from earlier work
# T1 construct: purchased Millipore Sigma (Burlington, MA, USA)
# From the text: GLP-1 and GIP are two crucial incretins, which have mainly contributed to the insulin response after meal intake. Suppressing the activity of DPP-4 can increase the level of active incretins, thereby decreasing blood glucose in diabetic patients. Based on the consideration of the adverse effects caused by the chemically synthesized inhibitors, some peptides with inhibitory effects on DPP-4 activity obtained from natural proteins, including milk, egg, grain, edible insects, and aquatic proteins have been widely reported. In the current study, the flavourzyme effectivel ... || It has been reported that the length and size of peptides influence their inhibitory activity against DPP-4.
# DPP-4 [2] = biological target: T1, DPP-4; assay: DPP-4 inhibition activity assay (Gly-Pro-p-nitroanilide substrate, OD 405 nm); type: biochemical; details: final concentration 1 mg/mL; n = 3; Figure 4A
# Description: The inhibition of each sample on DPP-4 was assayed according to a previously described method. Briefly, 20 μL of each sample solution, 50 μL of Tris-HCl buffer (pH8.0, 100 mM), and 100 μL of substrate were mixed in a well of a 96-well plate, then incubated at 37 °C for 10 min. Afterward, the 30 μL of DPP-IV solution was added, then placed at 37 °C for 40 min incubation. Afterward, the optical density was recorded at 405 nm using a BioTek Synergy H1 microplate reader (BioTek, Winooski, VT, USA). The inhibitory effect of the samples on DPP-4 was calculated according to a previously described equation [27].
# T1 sequence (P27487 whole entry): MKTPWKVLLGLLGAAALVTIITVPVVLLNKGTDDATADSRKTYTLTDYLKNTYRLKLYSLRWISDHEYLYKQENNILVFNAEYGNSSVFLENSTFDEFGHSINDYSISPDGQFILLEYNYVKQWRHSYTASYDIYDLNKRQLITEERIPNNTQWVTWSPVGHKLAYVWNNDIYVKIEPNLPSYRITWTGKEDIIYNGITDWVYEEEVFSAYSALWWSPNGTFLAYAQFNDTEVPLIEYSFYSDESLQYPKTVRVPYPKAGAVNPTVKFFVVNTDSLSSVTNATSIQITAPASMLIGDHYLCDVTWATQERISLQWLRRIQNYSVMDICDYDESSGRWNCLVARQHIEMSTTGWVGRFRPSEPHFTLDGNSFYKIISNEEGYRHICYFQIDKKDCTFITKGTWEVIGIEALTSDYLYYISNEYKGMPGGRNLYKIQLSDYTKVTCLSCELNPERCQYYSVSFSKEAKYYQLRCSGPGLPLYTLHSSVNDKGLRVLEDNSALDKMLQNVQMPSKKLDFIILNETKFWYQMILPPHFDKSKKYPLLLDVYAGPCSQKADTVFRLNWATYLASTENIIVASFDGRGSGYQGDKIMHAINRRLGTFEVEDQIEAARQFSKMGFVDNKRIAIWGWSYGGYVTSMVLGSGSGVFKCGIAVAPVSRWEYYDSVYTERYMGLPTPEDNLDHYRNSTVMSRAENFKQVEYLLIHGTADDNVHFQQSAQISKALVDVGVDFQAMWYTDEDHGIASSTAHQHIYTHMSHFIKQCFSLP
Substance,IC50 value against DPP-4 (DPP-4 [1]) [µg/mL],inhibitory effect of the synthesized peptides on DPP-4 activity (in words) (DPP-4 [2])
LPAVTIR,148,–
SNGLPFPTRP [synthesized peptide identified from T. molitor flavourzyme hydrolysate; origin Hexamerin 1],–,weak inhibitory activity
GLQFPTRPNF [synthesized peptide; origin 86 kDa early-staged encapsulation inducing protein],–,weak inhibitory activity
NEAYFGFPR [synthesized peptide identified from T. molitor flavourzyme hydrolysate; origin Hexamerin 1],–,weak inhibitory activity

# Source: publication PMC9689682, “Tenebrio molitor Proteins-Derived DPP-4 Inhibitory Peptides: Preparation, Identification, and Molecular Binding Mechanism” (Foods, 2022)
